Measurements published in patent US8637664B2, “Alkyl 4- [4- (5-oxo-2,3,5, 11a-tetrahydo-5H-pyrrolo [2, 1-c] [1,4] benzodiazepine-8-yloxy)-butyrylamino]-1H-pyrrole-2-carboxylate derivatives and related compounds for the treatment of a proliferative disease” (Spirogen SARL, priority 2005, dated 2014).

Tests used:
[1] = system: calf thymus DNA (CT-DNA); test: DNA thermal denaturation (melting) studies; assay type: binding; conditions: CT-DNA 100 μM DNAp, compound 20 μM, 37 °C; for Induced ΔTm after incubation 0 hours: pH 7.00, 0 hours; for Induced ΔTm after incubation 4 hours: pH 7.00, 4 hours; for Induced ΔTm after incubation 18 hours: pH 7.00, 18 hours; for Induced ΔTm after incubation 72 hours: pH 7.00, 72 hours
Method: The PBD agents were subjected to DNA thermal melting (denaturation) studies (Gregson, S. J., et al., Journal of Medicinal Chemistry, 44(5), 737-748 (2001); Jones, G. B., et al., Anti-Cancer Drug Design, 5(3), 249-264 (1990); McConnaughie, A. W. and; Jenkins, T. C. Journal of Medicinal Chemistry, 38(18), 3488-3501 (1995)) using calf thymus DNA (CT-DNA, type-1, highly polymerized sodium salt; 42% G+C [Sigma]) at a fixed 100 μM (DNAp=50 μM bp) concentration, determined using an extinction coefficient of 6600 (M phosphate)^−1 cm^−1 at 260 nm (Manzini, G., et al., Nucleic Acids Research, 11(24), 8861-8876 (1983)). Solutions were prepared in pH 7.00±0.01 aqueous buffer containing 10 mM NaH2PO4/Na2HPO4 and 1 mM EDTA. Working solutions containing CT-DNA and the test compound (20 μM) were incubated at 37.0±0.1° C. for 0 to 18 hours using an external water bath. Samples were monitored at 260 nm using a Varian-Cary 400 Bio spectrophotometer fitted with a Peltier heating accessory. Heating was applied at a rate of 1° C./min in the 45 to 98° C. temperature range, with optical and temperature data sampling at 200 ms intervals. A separate experiment was carried out using buffer alone, and this baseline was subtracted from each DNA melting curve before data treatment. Optical data were imported into the Origin 5 program (MicroCal Inc., Northampton, Mass.) for analysis. DNA helix→coil transition temperatures (Tm) were determined at the midpoint of the normalized melting profiles using a published analytical procedure (Jones, G. B., et al., Anti-Cancer Drug Design, 5(3), 249-264 (1990)). Results are given in table 1 as the mean±standard deviation from at least three determinations. Ligand-induced alterations in DNA melting behaviour (ΔTm) are given by ΔTm=Tm(DNA+ligand)−Tm(DNA), where the Tm value determined for free CT-DNA is 67.82±0.06° C. (averaged from >90 runs). All PBD compounds were dissolved in HPLC-grade MeOH to give working solutions containing ≦0.6% v/v MeOH; Tm results were corrected for the effects of MeOH co-solvent by using a linear correction term.
The above method was also carried out on the compounds of example 2, with all compounds being incubated for up to 72 hours.

[2] = system: 170 bp sequence of the human Topo-IIa promoter; test: DNase I footprinting on Topo-IIa promoter (ICB1, ICB2 sites); assay type: binding
Method: In a similar manner to Example 4, the affinity and sequence selectivity of certain compounds of examples 1 and 2 was evaluated by standard DNA footprinting on a 170 bp sequence of the human Topo-IIa promoter, in accordance with the technique described in Martin, C., et al.
Selected results are shown in FIG. 9, wherein the concentrations of the lanes were 0, 1.6, 8, 40, 200, 1000, 5000 and 25000 nM in each case.
The footprinting results allowed the identification of compounds that could potentially disrupt transcription factor binding at the ICB1 and ICB2 sites. […] These compounds are detailed below in table 3, showing the concentrations (μM) at which the PBD-heterocycle conjugates bind at ICB1 and ICB2.

[3] = system: NF-Y binding at ICB2 of Topoisomerase IIα promoter; test: NF-Y gel shift assay (EMSA) at ICB2

COC(=O)c1cc(NC(=O)c2csc(NC(=O)CCCOc3cc4c(cc3OC)C(=O)N3CCC[C@H]3C=N4)n2)cn1C [Compound 55] was tested, and the “Induced ΔTm after incubation 0 hours” value [1] was 14.5 °C, the “Induced ΔTm after incubation 4 hours” value [1] was 15.2 °C and the “Induced ΔTm after incubation 18 hours” value [1] was 15.8 °C. For the same compound, the “Induced ΔTm after incubation 72 hours” value [1] was 16.1 °C.
With COC(=O)c1cc(NC(=O)c2nc(NC(=O)CCCOc3cc4c(cc3OC)C(=O)N3CCC[C@H]3C=N4)cn2C)cn1C [Compound 57, (11aS) Methyl 4-({4-[4-(7-Methoxy-5-oxo-2,3,5,11a-tetrahydro-5H-pyrrolo[2,1-c][1,4]benzodiazepine-8-yloxy)-butyrylamino]-1-methyl-1H-imidazole-2-carbonyl}-amino)-1-methyl-1H-pyrrole-2-carboxylate] the “Induced ΔTm after incubation 0 hours” value [1] was 2.8 °C, the “Induced ΔTm after incubation 4 hours” value [1] was 3.0 °C and the “Induced ΔTm after incubation 18 hours” value [1] was 3.1 °C. The “Induced ΔTm after incubation 72 hours” value [1] was 3.2 °C.
For CCOC(=O)c1nc(NC(=O)c2nc(NC(=O)CCCOc3cc4c(cc3OC)C(=O)N3CCC[C@H]3C=N4)cn2C)cn1C [Compound 59, (11aS) Ethyl 4-({4-[4-(7-Methoxy-5-oxo-2,3,5,11a-tetrahydro-5H-pyrrolo[2,1-c][1,4]benzodiazepine-8-yloxy)-butyrylamino]-1-methyl-1H-imidazole-2-carbonyl}-amino)-1-methyl-1H-imidazole-2-carboxylate], the “Induced ΔTm after incubation 0 hours” value [1] was 10.3 °C, the “Induced ΔTm after incubation 4 hours” value [1] was 10.9 °C and the “Induced ΔTm after incubation 18 hours” value [1] was 11.4 °C. For the same compound, the “Induced ΔTm after incubation 72 hours” value [1] was 11.4 °C.
In the case of CCOC(=O)c1csc(NC(=O)c2csc(NC(=O)CCCOc3cc4c(cc3OC)C(=O)N3CCC[C@H]3C=N4)n2)n1 [Compound 61, (11aS) Ethyl 2-({2-[4-(7-Methoxy-5-oxo-2,3,5,11a-tetrahydro-5H-pyrrolo[2,1-c][1,4]benzodiazepine-8-yloxy)-butyrylamino]-thiazole-4-carbonyl}-amino)-thiazole-4-carboxylate], the “Induced ΔTm after incubation 0 hours” value [1] is reported as 7.7 °C, the “Induced ΔTm after incubation 4 hours” value [1] is reported as 8.0 °C and the “Induced ΔTm after incubation 18 hours” value [1] is reported as 8.3 °C. For the same compound, the “Induced ΔTm after incubation 72 hours” value [1] was 8.4 °C.
For CCOC(=O)c1csc(NC(=O)c2cc(NC(=O)CCCOc3cc4c(cc3OC)C(=O)N3CCC[C@H]3C=N4)cn2C)n1 [Compound 63, (11aS) Ethyl 2-({4-[4-(7-Methoxy-5-oxo-2,3,5,11a-tetrahydro-5H-pyrrolo[2,1-c][1,4]benzodiazepine-8-yloxy)-butyrylamino]-1-methyl-1H-pyrrole-2-carbonyl}-amino)-thiazole-4-carboxylate], the “Induced ΔTm after incubation 0 hours” value [1] was 9.3 °C, the “Induced ΔTm after incubation 4 hours” value [1] was 9.6 °C and the “Induced ΔTm after incubation 18 hours” value [1] was 10.2 °C. For the same compound, the “Induced ΔTm after incubation 72 hours” value [1] was 10.5 °C.
With CCOC(=O)c1nc(NC(=O)c2cc(NC(=O)CCCOc3cc4c(cc3OC)C(=O)N3CCC[C@H]3C=N4)cn2C)cn1C [Compound 65, (11aS) Ethyl 4-({4-[4-(7-Methoxy-5-oxo-2,3,5,11a-tetrahydro-5H-pyrrolo[2,1-c][1,4]benzodiazepine-8-yloxy)-butyrylamino]-1-methyl-1H-pyrrole-2-carbonyl}-amino)-1-methyl-1H-imidazole-2-carboxylate] the “Induced ΔTm after incubation 0 hours” value [1] was 10.0 °C, the “Induced ΔTm after incubation 4 hours” value [1] was 10.7 °C and the “Induced ΔTm after incubation 18 hours” value [1] was 11.2 °C. The “Induced ΔTm after incubation 72 hours” value [1] was 11.3 °C.
In the case of COC(=O)c1cc(NC(=O)c2nc(NC(=O)c3cc(NC(=O)CCCOc4cc5c(cc4OC)C(=O)N4CCC[C@H]4C=N5)cn3C)cn2C)cn1C [Compound 71], the “Induced ΔTm after incubation 0 hours” value [1] is reported as 15.5 °C, the “Induced ΔTm after incubation 4 hours” value [1] is reported as 16.0 °C and the “Induced ΔTm after incubation 18 hours” value [1] is reported as 16.9 °C. The “Induced ΔTm after incubation 72 hours” value [1] was 17.2 °C, the “Concentration at which DNA binding is observed, ICB1” value ([2]; ICB1 site) was 1 µM and the “Concentration at which DNA binding is observed, ICB2” value ([2]; ICB2 site) was 5 µM. For the same compound, the “Lowest concentration at which NF-Y binding inhibition was observed” value [3] was 10 µM.
For COC(=O)c1cc(NC(=O)c2nc(NC(=O)c3nc(NC(=O)CCCOc4cc5c(cc4OC)C(=O)N4CCC[C@H]4C=N5)cn3C)cn2C)cn1C [Compound 75], the “Induced ΔTm after incubation 0 hours” value [1] was 14.3 °C, the “Induced ΔTm after incubation 4 hours” value [1] was 15.0 °C and the “Induced ΔTm after incubation 18 hours” value [1] was 15.4 °C. For the same compound, the “Induced ΔTm after incubation 72 hours” value [1] was 15.6 °C.
CCOC(=O)c1nc(NC(=O)c2nc(NC(=O)c3nc(NC(=O)CCCOc4cc5c(cc4OC)C(=O)N4CCC[C@H]4C=N5)cn3C)cn2C)cn1C [Compound 77] was tested, and the “Induced ΔTm after incubation 0 hours” value [1] was 11.0 °C, the “Induced ΔTm after incubation 4 hours” value [1] was 11.7 °C and the “Induced ΔTm after incubation 18 hours” value [1] was 12.0 °C. The “Induced ΔTm after incubation 72 hours” value [1] was 12.1 °C and the “Lowest concentration at which NF-Y binding inhibition was observed” value [3] was 50 µM.
CCOC(=O)c1nc(NC(=O)c2cc(NC(=O)c3cc(NC(=O)CCCOc4cc5c(cc4OC)C(=O)N4CCC[C@H]4C=N5)cn3C)cn2C)cn1C [Compound 79] was tested, and the “Induced ΔTm after incubation 0 hours” value [1] was 13.9 °C, the “Induced ΔTm after incubation 4 hours” value [1] was 14.8 °C and the “Induced ΔTm after incubation 18 hours” value [1] was 15.2 °C. The “Induced ΔTm after incubation 72 hours” value [1] was 15.5 °C.
CCOC(=O)c1nc(NC(=O)c2cc(NC(=O)c3nc(NC(=O)CCCOc4cc5c(cc4OC)C(=O)N4CCC[C@H]4C=N5)cn3C)cn2C)cn1C [Compound 81] was tested, and the “Induced ΔTm after incubation 0 hours” value [1] was 14.9 °C, the “Induced ΔTm after incubation 4 hours” value [1] was 15.7 °C and the “Induced ΔTm after incubation 18 hours” value [1] was 16.2 °C. The “Induced ΔTm after incubation 72 hours” value [1] was 16.4 °C.
For CCOC(=O)c1csc(NC(=O)c2csc(NC(=O)c3csc(NC(=O)CCCOc4cc5c(cc4OC)C(=O)N4CCC[C@H]4C=N5)n3)n2)n1 [Compound 83], the “Induced ΔTm after incubation 0 hours” value [1] was 10.0 °C, the “Induced ΔTm after incubation 4 hours” value [1] was 10.7 °C and the “Induced ΔTm after incubation 18 hours” value [1] was 10.9 °C. The “Induced ΔTm after incubation 72 hours” value [1] was 11.0 °C.
For CCOC(=O)c1csc(NC(=O)c2csc(NC(=O)c3cc(NC(=O)CCCOc4cc5c(cc4OC)C(=O)N4CCC[C@H]4C=N5)cn3C)n2)n1 [Compound 85], the “Induced ΔTm after incubation 0 hours” value [1] was 7.5 °C, the “Induced ΔTm after incubation 4 hours” value [1] was 8.0 °C and the “Induced ΔTm after incubation 18 hours” value [1] was 8.4 °C. For the same compound, the “Induced ΔTm after incubation 72 hours” value [1] was 8.4 °C.
For CCOC(=O)c1csc(NC(=O)c2cc(NC(=O)c3csc(NC(=O)CCCOc4cc5c(cc4OC)C(=O)N4CCC[C@H]4C=N5)n3)cn2C)n1 [Compound 87], the “Induced ΔTm after incubation 0 hours” value [1] was 6.4 °C, the “Induced ΔTm after incubation 4 hours” value [1] was 6.8 °C and the “Induced ΔTm after incubation 18 hours” value [1] was 7.1 °C. For the same compound, the “Induced ΔTm after incubation 72 hours” value [1] was 7.3 °C.
In the case of CCOC(=O)c1csc(NC(=O)c2cc(NC(=O)c3cc(NC(=O)CCCOc4cc5c(cc4OC)C(=O)N4CCC[C@H]4C=N5)cn3C)cn2C)n1 [Compound 89], the “Induced ΔTm after incubation 0 hours” value [1] is reported as 16.8 °C, the “Induced ΔTm after incubation 4 hours” value [1] is reported as 17.7 °C and the “Induced ΔTm after incubation 18 hours” value [1] is reported as 18.6 °C. For the same compound, the “Induced ΔTm after incubation 72 hours” value [1] was 18.8 °C.
